Results from the NIST ThermoML archive (doi:10.1021/acs.jced.8b00236).
± gives the expanded uncertainty stated by the source.

Test: mn = molality of the nth substance listed, in mol/kg
Settings: 75 kPa, Liquid; for viscosity: Capillary tube (Ostwald / Ubbelohde) method; for speed of sound: Frequency=3 MHz, Single path-length method; for mass density: Vibrating tube method

NCCCC(=O)O [4-aminobutanoic acid] + O
Settings	mass density [kg/m3]	speed of sound [m/s]	viscosity [mPa·s]
288.15 K, m1 = 0.1389	1003.34 ± 0.3	1478.5 ± 4	1.204 ± 0.025
288.15 K, m1 = 0.2788	1007.5 ± 0.3	1490.3 ± 4	1.252 ± 0.026
288.15 K, m1 = 0.4194	1011.57 ± 0.3	1501.8 ± 4	1.313 ± 0.027
288.15 K, m1 = 0.56	1015.51 ± 0.3	1513 ± 4	1.376 ± 0.029
288.15 K, m1 = 0.702	1019.39 ± 0.3	1523.9 ± 4	1.452 ± 0.03
288.15 K, m1 = 0.8449	1023.19 ± 0.3	1534.5 ± 4	1.515 ± 0.031
288.15 K, m1 = 0.9892	1026.91 ± 0.3	1544.8 ± 4	1.591 ± 0.033
288.15 K, m1 = 1.132	1030.5 ± 0.3	1554.5 ± 4	1.672 ± 0.035
293.15 K, m1 = 0.1389	1002.43 ± 0.3	1494.4 ± 4	1.054 ± 0.022
293.15 K, m1 = 0.2788	1006.57 ± 0.3	1506 ± 4	1.098 ± 0.023
293.15 K, m1 = 0.4194	1010.61 ± 0.3	1517.4 ± 4	1.148 ± 0.024
293.15 K, m1 = 0.56	1014.53 ± 0.3	1528.5 ± 4	1.206 ± 0.025
293.15 K, m1 = 0.702	1018.37 ± 0.3	1539.6 ± 4	1.265 ± 0.026
293.15 K, m1 = 0.8449	1022.12 ± 0.3	1550.5 ± 4	1.325 ± 0.028
293.15 K, m1 = 0.9892	1025.79 ± 0.3	1561.2 ± 4	1.393 ± 0.029
293.15 K, m1 = 1.132	1029.32 ± 0.3	1571.5 ± 4	1.464 ± 0.03
298.15 K, m1 = 0.1389	1001.25 ± 0.3	1508.1 ± 4	0.936 ± 0.019
298.15 K, m1 = 0.2788	1005.35 ± 0.3	1519.3 ± 4	0.975 ± 0.02
298.15 K, m1 = 0.4194	1009.36 ± 0.3	1530.3 ± 4	1.022 ± 0.021
298.15 K, m1 = 0.56	1013.22 ± 0.3	1541.2 ± 4	1.068 ± 0.022
298.15 K, m1 = 0.702	1017.01 ± 0.3	1551.9 ± 4	1.125 ± 0.023
298.15 K, m1 = 0.8449	1020.7 ± 0.3	1562.2 ± 4	1.178 ± 0.024
298.15 K, m1 = 0.9892	1024.31 ± 0.3	1572.5 ± 4	1.243 ± 0.026
298.15 K, m1 = 1.132	1027.75 ± 0.3	1582.3 ± 4	1.307 ± 0.027
303.15 K, m1 = 0.1389	999.81 ± 0.3	1520.1 ± 4	0.835 ± 0.017
303.15 K, m1 = 0.2788	1003.88 ± 0.3	1530.9 ± 4	0.874 ± 0.018
303.15 K, m1 = 0.4194	1007.84 ± 0.3	1541.6 ± 4	0.91 ± 0.019
303.15 K, m1 = 0.56	1011.67 ± 0.3	1552.1 ± 4	0.955 ± 0.02
303.15 K, m1 = 0.702	1015.43 ± 0.3	1562.4 ± 4	0.994 ± 0.021
303.15 K, m1 = 0.8449	1019.1 ± 0.3	1572.4 ± 4	1.037 ± 0.022
303.15 K, m1 = 0.9892	1022.68 ± 0.3	1582.3 ± 4	1.095 ± 0.023
303.15 K, m1 = 1.132	1026.12 ± 0.3	1591.8 ± 4	1.156 ± 0.024
308.15 K, m1 = 0.1389	998.155 ± 0.3	1530.4 ± 4	0.753 ± 0.016
308.15 K, m1 = 0.2788	1002.19 ± 0.3	1540.9 ± 4	0.788 ± 0.016
308.15 K, m1 = 0.4194	1006.12 ± 0.3	1551.3 ± 4	0.822 ± 0.017
308.15 K, m1 = 0.56	1009.94 ± 0.3	1561.4 ± 4	0.853 ± 0.018
308.15 K, m1 = 0.702	1013.68 ± 0.3	1571.3 ± 4	0.894 ± 0.019
308.15 K, m1 = 0.8449	1017.35 ± 0.3	1581 ± 4	0.94 ± 0.02
308.15 K, m1 = 0.9892	1020.93 ± 0.3	1590.6 ± 4	0.991 ± 0.021
308.15 K, m1 = 1.132	1024.37 ± 0.3	1599.8 ± 4	1.041 ± 0.022

NCCCCC(=O)O [5-aminovaleric acid] + O
Settings	mass density [kg/m3]	speed of sound [m/s]	viscosity [mPa·s]
288.15 K, m1 = 0.1389	1003.29 ± 0.3	1481 ± 4	1.215 ± 0.025
288.15 K, m1 = 0.2789	1007.34 ± 0.3	1495.3 ± 4	1.293 ± 0.027
288.15 K, m1 = 0.4193	1011.22 ± 0.3	1509.3 ± 4	1.38 ± 0.029
288.15 K, m1 = 0.5604	1014.96 ± 0.3	1523 ± 4	1.473 ± 0.031
288.15 K, m1 = 0.7025	1018.54 ± 0.3	1536.5 ± 4	1.575 ± 0.033
288.15 K, m1 = 0.8448	1021.98 ± 0.31	1549.8 ± 4	1.685 ± 0.035
293.15 K, m1 = 0.1389	1002.34 ± 0.3	1496.8 ± 4	1.073 ± 0.022
293.15 K, m1 = 0.2789	1006.33 ± 0.3	1510.7 ± 4	1.135 ± 0.024
293.15 K, m1 = 0.4193	1010.16 ± 0.3	1524.2 ± 4	1.208 ± 0.025
293.15 K, m1 = 0.5604	1013.85 ± 0.3	1537.5 ± 4	1.289 ± 0.027
293.15 K, m1 = 0.7025	1017.4 ± 0.3	1550.4 ± 4	1.376 ± 0.029
293.15 K, m1 = 0.8448	1020.81 ± 0.31	1562.9 ± 4	1.477 ± 0.031
298.15 K, m1 = 0.1389	1001.15 ± 0.3	1510.3 ± 4	0.946 ± 0.02
298.15 K, m1 = 0.2789	1005.16 ± 0.3	1523.7 ± 4	1.003 ± 0.021
298.15 K, m1 = 0.4193	1009.06 ± 0.3	1536.7 ± 4	1.063 ± 0.022
298.15 K, m1 = 0.5604	1012.86 ± 0.3	1549.3 ± 4	1.143 ± 0.024
298.15 K, m1 = 0.7025	1016.56 ± 0.3	1561.6 ± 4	1.215 ± 0.025
298.15 K, m1 = 0.8448	1020.15 ± 0.31	1573.5 ± 4	1.301 ± 0.027
303.15 K, m1 = 0.1389	999.722 ± 0.3	1522.1 ± 4	0.853 ± 0.018
303.15 K, m1 = 0.2789	1003.72 ± 0.3	1534.9 ± 4	0.893 ± 0.019
303.15 K, m1 = 0.4193	1007.61 ± 0.3	1547.4 ± 4	0.95 ± 0.02
303.15 K, m1 = 0.5604	1011.41 ± 0.3	1559.5 ± 4	1.013 ± 0.021
303.15 K, m1 = 0.7025	1015.13 ± 0.3	1571.3 ± 4	1.077 ± 0.022
303.15 K, m1 = 0.8448	1018.76 ± 0.31	1582.7 ± 4	1.158 ± 0.024
308.15 K, m1 = 0.1389	998.079 ± 0.3	1532.3 ± 4	0.762 ± 0.016
308.15 K, m1 = 0.2789	1002.05 ± 0.3	1544.6 ± 4	0.8 ± 0.017
308.15 K, m1 = 0.4193	1005.91 ± 0.3	1556.5 ± 4	0.848 ± 0.018
308.15 K, m1 = 0.5604	1009.68 ± 0.3	1568.2 ± 4	0.9 ± 0.019
308.15 K, m1 = 0.7025	1013.37 ± 0.3	1579.4 ± 4	0.957 ± 0.02
308.15 K, m1 = 0.8448	1016.96 ± 0.31	1590.2 ± 4	1.019 ± 0.021
